In ChEMBL document CHEMBL3991601, “The target landscape of clinical kinase drugs” (Science, 2017):
Where a name gives a salt, the structure may show the parent alone. Activity calls are given as the source filed them. On the calls: in the data inactive means no Kd found up to 30 µM.

Columns and labels:
[1] = biological target: T1, Dual specificity protein kinase TTK (Homo sapiens, UniProt P33981)
T1 sequence (P33981 whole entry): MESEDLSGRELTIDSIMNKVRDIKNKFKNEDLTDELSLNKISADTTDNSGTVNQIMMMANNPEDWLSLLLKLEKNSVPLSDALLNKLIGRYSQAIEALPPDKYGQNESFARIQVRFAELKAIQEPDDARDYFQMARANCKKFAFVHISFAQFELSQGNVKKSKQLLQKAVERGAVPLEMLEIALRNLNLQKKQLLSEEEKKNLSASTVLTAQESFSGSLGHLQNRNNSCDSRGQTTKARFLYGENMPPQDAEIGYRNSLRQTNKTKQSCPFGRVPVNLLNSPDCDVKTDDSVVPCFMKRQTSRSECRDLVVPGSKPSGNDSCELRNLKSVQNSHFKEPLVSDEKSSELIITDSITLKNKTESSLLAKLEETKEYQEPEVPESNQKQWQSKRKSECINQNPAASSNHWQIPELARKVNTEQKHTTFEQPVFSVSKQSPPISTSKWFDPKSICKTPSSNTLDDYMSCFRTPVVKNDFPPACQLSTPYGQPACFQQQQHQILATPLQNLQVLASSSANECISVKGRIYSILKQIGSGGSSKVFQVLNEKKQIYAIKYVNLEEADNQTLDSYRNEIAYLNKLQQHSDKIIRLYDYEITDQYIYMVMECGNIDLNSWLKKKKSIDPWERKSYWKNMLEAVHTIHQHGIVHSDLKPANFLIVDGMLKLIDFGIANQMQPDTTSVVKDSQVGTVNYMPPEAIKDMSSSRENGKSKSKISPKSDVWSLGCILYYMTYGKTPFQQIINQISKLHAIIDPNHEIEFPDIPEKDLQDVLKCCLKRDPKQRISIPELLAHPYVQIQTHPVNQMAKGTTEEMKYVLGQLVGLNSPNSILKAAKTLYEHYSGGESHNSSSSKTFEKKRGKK

[2] = biological target: Serine/threonine-protein kinase 24 (Homo sapiens, UniProt Q9Y6E0)
Serine/threonine-protein kinase 24, sequence (Q9Y6E0 whole entry): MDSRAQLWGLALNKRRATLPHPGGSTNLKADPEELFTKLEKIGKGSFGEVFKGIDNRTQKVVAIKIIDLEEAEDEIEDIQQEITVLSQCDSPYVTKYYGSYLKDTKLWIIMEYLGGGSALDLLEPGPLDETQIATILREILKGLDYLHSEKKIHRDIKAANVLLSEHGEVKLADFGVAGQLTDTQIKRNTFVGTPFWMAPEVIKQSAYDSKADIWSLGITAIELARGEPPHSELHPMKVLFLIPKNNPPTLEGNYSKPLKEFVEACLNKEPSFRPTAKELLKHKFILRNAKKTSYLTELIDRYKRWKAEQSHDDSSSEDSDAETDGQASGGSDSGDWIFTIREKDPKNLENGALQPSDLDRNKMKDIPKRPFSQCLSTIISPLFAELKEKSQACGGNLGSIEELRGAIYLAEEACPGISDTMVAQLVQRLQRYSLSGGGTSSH

[3] = biological target: T2, Protein kinase C zeta type (Homo sapiens, UniProt Q05513)
T2 sequence (Q05513 whole entry): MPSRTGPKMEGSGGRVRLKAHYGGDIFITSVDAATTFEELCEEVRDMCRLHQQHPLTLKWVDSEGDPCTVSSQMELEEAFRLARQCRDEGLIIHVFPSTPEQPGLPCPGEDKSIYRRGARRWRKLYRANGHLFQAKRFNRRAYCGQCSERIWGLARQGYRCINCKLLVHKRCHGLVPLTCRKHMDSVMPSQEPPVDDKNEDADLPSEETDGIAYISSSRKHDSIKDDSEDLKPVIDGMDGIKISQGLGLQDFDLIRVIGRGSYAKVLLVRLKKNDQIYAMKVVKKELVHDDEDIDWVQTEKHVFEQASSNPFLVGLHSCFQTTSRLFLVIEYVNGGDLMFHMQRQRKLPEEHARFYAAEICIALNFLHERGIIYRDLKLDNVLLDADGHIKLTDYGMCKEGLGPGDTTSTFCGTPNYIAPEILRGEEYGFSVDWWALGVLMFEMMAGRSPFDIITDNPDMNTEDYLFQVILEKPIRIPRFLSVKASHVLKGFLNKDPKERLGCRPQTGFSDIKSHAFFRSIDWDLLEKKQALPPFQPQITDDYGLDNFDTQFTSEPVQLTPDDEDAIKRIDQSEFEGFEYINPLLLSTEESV

[4] = biological target: Serine/threonine-protein kinase PAK 6 (Homo sapiens, UniProt Q9NQU5)
Serine/threonine-protein kinase PAK 6, sequence (Q9NQU5 whole entry): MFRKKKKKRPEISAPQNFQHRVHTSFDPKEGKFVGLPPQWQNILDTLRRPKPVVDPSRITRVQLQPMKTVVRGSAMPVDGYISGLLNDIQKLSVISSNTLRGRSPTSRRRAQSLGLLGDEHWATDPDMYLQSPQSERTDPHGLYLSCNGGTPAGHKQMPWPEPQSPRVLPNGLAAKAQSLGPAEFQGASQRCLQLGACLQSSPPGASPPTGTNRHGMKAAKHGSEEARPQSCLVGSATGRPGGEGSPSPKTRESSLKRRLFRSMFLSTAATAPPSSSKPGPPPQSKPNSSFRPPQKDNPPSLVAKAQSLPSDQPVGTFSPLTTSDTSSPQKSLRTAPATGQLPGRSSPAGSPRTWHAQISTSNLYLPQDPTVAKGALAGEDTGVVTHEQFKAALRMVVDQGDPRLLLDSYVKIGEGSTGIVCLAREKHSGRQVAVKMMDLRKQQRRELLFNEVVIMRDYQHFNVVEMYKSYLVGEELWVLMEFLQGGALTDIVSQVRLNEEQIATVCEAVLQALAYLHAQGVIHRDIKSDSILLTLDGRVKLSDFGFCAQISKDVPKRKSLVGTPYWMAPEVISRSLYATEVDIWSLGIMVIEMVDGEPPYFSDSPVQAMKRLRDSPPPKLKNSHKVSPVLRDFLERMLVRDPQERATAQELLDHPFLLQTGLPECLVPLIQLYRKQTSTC

[5] = biological target: Cell division cycle 7-related protein kinase (Homo sapiens, UniProt O00311)
Cell division cycle 7-related protein kinase, sequence (O00311 whole entry): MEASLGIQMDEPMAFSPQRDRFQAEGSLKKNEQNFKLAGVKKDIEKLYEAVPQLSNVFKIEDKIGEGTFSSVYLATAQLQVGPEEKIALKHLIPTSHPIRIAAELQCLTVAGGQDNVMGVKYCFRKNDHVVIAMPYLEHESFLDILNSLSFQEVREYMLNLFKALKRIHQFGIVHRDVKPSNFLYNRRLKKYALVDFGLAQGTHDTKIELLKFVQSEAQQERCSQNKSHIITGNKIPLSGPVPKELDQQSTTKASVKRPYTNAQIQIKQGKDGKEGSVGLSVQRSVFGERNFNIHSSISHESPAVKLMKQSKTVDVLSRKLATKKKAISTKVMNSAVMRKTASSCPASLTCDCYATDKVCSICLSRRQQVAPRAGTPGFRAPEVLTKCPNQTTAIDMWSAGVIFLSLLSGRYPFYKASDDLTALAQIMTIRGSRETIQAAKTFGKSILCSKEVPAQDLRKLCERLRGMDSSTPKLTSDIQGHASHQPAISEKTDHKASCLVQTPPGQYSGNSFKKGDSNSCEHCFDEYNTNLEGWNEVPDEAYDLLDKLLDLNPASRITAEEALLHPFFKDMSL

[6] = biological target: T3, Electron transfer flavoprotein subunit beta (Homo sapiens, UniProt P38117)
T3 sequence (P38117 whole entry): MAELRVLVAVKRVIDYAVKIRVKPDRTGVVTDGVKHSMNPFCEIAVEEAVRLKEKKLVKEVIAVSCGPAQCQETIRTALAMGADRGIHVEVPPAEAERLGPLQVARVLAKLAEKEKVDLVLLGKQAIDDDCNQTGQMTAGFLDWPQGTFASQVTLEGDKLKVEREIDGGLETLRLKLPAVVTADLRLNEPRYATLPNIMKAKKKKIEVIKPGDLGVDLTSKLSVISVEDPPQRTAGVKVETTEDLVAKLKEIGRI

[7] = biological target: Serine/threonine-protein kinase pim-2 (Homo sapiens, UniProt Q9P1W9)
Serine/threonine-protein kinase pim-2, sequence (Q9P1W9 whole entry): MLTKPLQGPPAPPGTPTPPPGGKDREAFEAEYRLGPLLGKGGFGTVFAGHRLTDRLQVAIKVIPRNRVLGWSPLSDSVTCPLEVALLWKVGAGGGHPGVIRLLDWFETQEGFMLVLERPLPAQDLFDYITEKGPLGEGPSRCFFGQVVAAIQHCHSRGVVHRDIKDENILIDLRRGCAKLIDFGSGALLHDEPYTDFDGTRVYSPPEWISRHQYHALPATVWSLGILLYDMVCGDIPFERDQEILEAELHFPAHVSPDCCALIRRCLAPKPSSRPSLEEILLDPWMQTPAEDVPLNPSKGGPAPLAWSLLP

UMP-CMP kinase = biological target: T4, UMP-CMP kinase (Homo sapiens, UniProt P30085)
T4 sequence (P30085 whole entry): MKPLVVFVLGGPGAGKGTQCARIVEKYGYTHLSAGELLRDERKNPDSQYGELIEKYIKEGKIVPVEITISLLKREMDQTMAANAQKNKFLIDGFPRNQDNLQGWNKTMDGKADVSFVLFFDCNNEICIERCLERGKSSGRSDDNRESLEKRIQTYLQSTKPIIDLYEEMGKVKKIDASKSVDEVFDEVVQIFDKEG

Row | SMILES | Kd [1] | Kd [2] | Kd [3] | Kd [4] | Kd [5] | Kd [6] | Kd [7] | Kd (UMP-CMP kinase)
1 | C[C@H]1CNCCCN1S(=O)(=O)c1cccc2cncc(F)c12 | > 30 µM (inactive) | > 30 µM (inactive) | > 30 µM (inactive) | > 30 µM (inactive) |  |  |  | 
2 | CCNC(=O)C#Cc1ccc2c(c1)NC(=O)/C2=C(\Nc1ccc(CN(C)C)cc1)c1ccccc1 |  | > 30 µM (inactive) | > 30 µM (inactive) |  | 3.99 µM (active) |  |  | 
3 | Cc1nc2cc(-c3nn(C(C)C)c4ncnc(N)c34)ccc2o1 |  | > 30 µM (inactive) | > 30 µM (inactive) | > 30 µM (inactive) |  | > 30 µM (inactive) |  | 
4 | C=CC(=O)Nc1cc2c(Nc3ccc(F)c(Cl)c3)ncnc2cc1C#CC(C)(C)N1CCN(C)CC1 [AV-412 FREE BASE] |  |  | > 30 µM (inactive) | > 30 µM (inactive) |  |  | > 30 µM (inactive) | 
5 | CNC(=O)c1ccccc1Sc1ccc2c(/C=C/c3ccccn3)n[nH]c2c1 [AXITINIB] |  |  | > 30 µM (inactive) |  | > 30 µM (inactive) | > 30 µM (inactive) |  | > 30 µM (inactive)
6 | Cc1cc(Nc2ncc(Cl)c(Nc3ccccc3S(=O)(=O)C(C)C)n2)c(OC(C)C)cc1C1CCNCC1 [CERITINIB] | > 30 µM (inactive) |  | > 30 µM (inactive) | > 30 µM (inactive) |  |  | > 30 µM (inactive) | 
7 | CCS(=O)(=O)N1CCN(c2ccc(Nc3ncc(C(N)=O)c(NC4CC4)n3)cc2)CC1 [Cerdulatinib Hydrochloride] |  |  | > 30 µM (inactive) | > 30 µM (inactive) | > 30 µM (inactive) |  | > 30 µM (inactive) | 
8 | CNC(=O)c1nn(C)c2c1C(C)(C)Cc1cnc(Nc3ccc(N4CCN(C)CC4)cc3)nc1-2 [MILCICLIB] | > 30 µM (inactive) | > 30 µM (inactive) | > 30 µM (inactive) | > 30 µM (inactive) | > 30 µM (inactive) |  | > 30 µM (inactive) | 
9 | CCOc1cc2ncc(C#N)c(Nc3ccc(F)c(Cl)c3)c2cc1NC(=O)/C=C/CN(C)C [PELITINIB] | > 30 µM (inactive) |  |  | > 30 µM (inactive) | > 30 µM (inactive) | > 30 µM (inactive) | > 30 µM (inactive) | > 30 µM (inactive)
10 | Cc1cnc(NC(=O)Nc2cc(Br)c(C)cc2OC[C@@H]2CNCCO2)cn1 [RABUSERTIB] |  | > 30 µM (inactive) | > 30 µM (inactive) | > 30 µM (inactive) | > 30 µM (inactive) | > 30 µM (inactive) | > 30 µM (inactive) | 
11 | CNC(=O)c1cc(Oc2ccc(NC(=O)Nc3cc(C(C)(C)C)nn3-c3ccc4ncccc4c3)c(F)c2)ccn1 [REBASTINIB] | > 30 µM (inactive) |  | > 30 µM (inactive) |  |  |  | > 30 µM (inactive) | 
12 | CO[C@H]1C[C@@H]2CC[C@@H](C)[C@@](O)(O2)C(=O)C(=O)N2CCCC[C@H]2C(=O)O[C@H]([C@H](C)C[C@@H]2CC[C@@H](OP(C)(C)=O)[C@H](OC)C2)CC(=O)[C@H](C)/C=C(\C)[C@@H](O)[C@@H](OC)C(=O)[C@H](C)C[C@H](C)/C=C/C=C/C=C/1C [RIDAFOROLIMUS] | > 30 µM (inactive) | > 30 µM (inactive) | > 30 µM (inactive) |  | > 30 µM (inactive) | > 30 µM (inactive) | > 30 µM (inactive) | 
13 | O=c1[nH]ccc2cc(OC3CCNCC3)ccc12 [SAR-407899 FREE BASE] |  | > 30 µM (inactive) | > 30 µM (inactive) | > 30 µM (inactive) |  | > 30 µM (inactive) | > 30 µM (inactive) | > 30 µM (inactive)
14 | CN1CCN(CCOc2cc(OC3CCOCC3)c3c(Nc4c(Cl)ccc5c4OCO5)ncnc3c2)CC1 [SARACATINIB] | > 30 µM (inactive) | > 30 µM (inactive) | > 30 µM (inactive) | > 30 µM (inactive) |  |  | > 30 µM (inactive) | 
15 | O=C(Cc1ccc(-c2ccc(OCCN3CCOCC3)cc2)cn1)NCc1ccccc1 [TIRBANIBULIN] |  | > 30 µM (inactive) | > 30 µM (inactive) |  |  | > 30 µM (inactive) | > 30 µM (inactive) | > 30 µM (inactive)
16 | O=C1NC(=O)[C@@H](c2cn3c4c(cccc24)CCC3)[C@@H]1c1c[nH]c2ccccc12 [TIVANTINIB] |  |  | > 30 µM (inactive) | > 30 µM (inactive) |  | > 30 µM (inactive) | > 30 µM (inactive) | > 30 µM (inactive)
17 | C[C@@H](NC(=O)c1ncnc(N)c1Cl)c1ncc(C(=O)Nc2cc(C(F)(F)F)c(Cl)cn2)s1 [TOVORAFENIB] | > 30 µM (inactive) | > 30 µM (inactive) | > 30 µM (inactive) | > 30 µM (inactive) | > 30 µM (inactive) |  | > 30 µM (inactive) | 
18 | Cc1cc(Nc2ncnc3ccc(NC4=NC(C)(C)CO4)cc23)ccc1Oc1ccn2ncnc2c1 [TUCATINIB] |  | > 30 µM (inactive) | > 30 µM (inactive) |  | > 30 µM (inactive) |  |  | > 30 µM (inactive)
19 | CN1C/C=C/CCOc2cccc(c2)-c2ccnc(n2)Nc2cccc(c2)C1 [ZOTIRACICLIB] |  |  | > 30 µM (inactive) |  |  |  |  | 

The remaining lines, values ahead:

Row | Kd [1] | Kd [2] | Kd [3] | Kd [4] | Kd [5] | Kd [6] | Kd [7] | Kd (UMP-CMP kinase) | SMILES
20 |  |  | > 30 µM (inactive) | > 30 µM (inactive) | > 30 µM (inactive) | > 30 µM (inactive) | > 30 µM (inactive) |  | COCC(=O)NC/C=C/c1ccc2ncnc(Nc3ccc(Oc4ccc(C)nc4)c(C)c3)c2c1 [CP-724714]
21 | > 30 µM (inactive) |  | > 30 µM (inactive) | > 30 µM (inactive) | > 30 µM (inactive) | > 30 µM (inactive) | > 30 µM (inactive) |  | C#Cc1cccc(Nc2ncnc3cc(OC)c(OCCCCCCC(=O)NO)cc23)c1 [CUDC-101]
22 |  |  | > 30 µM (inactive) |  |  | > 30 µM (inactive) |  |  | C[C@@H](Oc1cc(-n2cnc3ccc(CN4CCN(C)CC4)cc32)sc1C(N)=O)c1ccccc1C(F)(F)F [GSK-461364]
23 |  | > 30 µM (inactive) | > 30 µM (inactive) | > 30 µM (inactive) | > 30 µM (inactive) |  | > 30 µM (inactive) |  | COc1ccc(S(=O)(=O)N(C(C)=O)c2ccccc2/C=C/c2cc[n+]([O-])cc2)cc1 [HMN-214]
24 |  |  | > 30 µM (inactive) | 0.003 µM (active) | > 30 µM (inactive) | > 30 µM (inactive) |  | > 30 µM (inactive) | Cc1nc(Nc2n[nH]c3c2CN(C(=O)N[C@H](CN(C)C)c2ccccc2)C3(C)C)c2sccc2n1 [PF-03758309]
25 |  |  | > 30 µM (inactive) |  | > 30 µM (inactive) | > 30 µM (inactive) |  |  | O=C(NOCCO)c1cc(CN2OCCCC2=O)c(F)c(F)c1Nc1ccc(I)cc1F [RO-4987655]
26 |  |  | > 30 µM (inactive) | > 30 µM (inactive) | > 30 µM (inactive) | > 30 µM (inactive) |  | > 30 µM (inactive) | Cn1cc(-c2cnn3c(N)c(Br)c([C@@H]4CCCNC4)nc23)cn1 [SCH-900776]
27 | > 30 µM (inactive) | > 30 µM (inactive) | > 30 µM (inactive) | > 30 µM (inactive) | > 30 µM (inactive) |  | > 30 µM (inactive) |  | CCS(=O)(=O)c1cccc(-c2cc(C(=O)NC3CCN(C)CC3)c(C)c3[nH]c4ncc(C)cc4c23)c1 [TAK-901]
